Assay results taken from PubChem BioAssay (NCI).
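Test compounds were applied to cells in 96-well plates for 48 hours at 5 doses. GI50 marks 50% less growth. TGI: concentration producing complete growth inhibition.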

How the values were obtained:
Experiment in all cases: NCI tumour cell line growth inhibition, 48 h
[1] = system: SK-MEL-5 melanoma
[2] = system: SK-MEL-28 melanoma
[3] = system: EKVX NSCLC
[4] = system: RXF 393 renal
[5] = system: NCI-H522 lung
[6] = system: OVCAR-8 ovarian
[7] = system: A549 NSCLC
[8] = system: SF-539 CNS
[9] = system: SR leukemia
[10] = system: T-47D breast

CC(C)(C)CC(C)(C)c1cc2c(O)c(c1)Cc1cc(C(C)(C)CC(C)(C)C)cc(c1O)Cc1cc(C(C)(C)CC(C)(C)C)cc(c1O)Cc1cc(C(C)(C)CC(C)(C)C)cc(c1O)Cc1cc(C(C)(C)CC(C)(C)C)cc(c1O)C2
TGI [1]: > 100 µM
TGI [2]: > 100 µM
TGI [3]: > 100 µM
TGI [4]: > 100 µM
TGI [5]: > 100 µM
TGI [6]: > 100 µM
TGI [7]: > 100 µM
TGI [8]: > 100 µM

Cc1cccc(C)c1CO
TGI [3]: > 100 µM
TGI [4]: > 100 µM
TGI [5]: > 100 µM
TGI [6]: > 100 µM
TGI [7]: > 100 µM
TGI [9]: > 100 µM
TGI [8]: > 100 µM

CC1=C[C@]2(O)C(=O)[C@H](C)C[C@H]3[C@@H](CC[C@@](C)(O)/C=C\2C1=O)C3(C)C
TGI [1]: 50.8 µM
TGI [2]: 33.1 µM
TGI [3]: > 100 µM
TGI [4]: 19.8 µM
TGI [5]: 26.7 µM
TGI [6]: 46.9 µM
TGI [7]: > 100 µM
TGI [9]: 45.2 µM
TGI [8]: 46.8 µM

CCOc1ccc(N=Cc2ccc3cc(C)ccc3n2)cc1
TGI [1]: > 100 µM
TGI [2]: > 100 µM
TGI [3]: > 100 µM
TGI [4]: > 100 µM
TGI [5]: > 100 µM
TGI [6]: > 100 µM
TGI [7]: > 100 µM
TGI [8]: > 100 µM

O=C(c1ccccc1)c1c(-c2ccccc2)sc2nc3ccccc3nc12
TGI [1]: > 100 µM
TGI [2]: > 100 µM
TGI [3]: > 100 µM
TGI [4]: > 100 µM
TGI [5]: > 100 µM
TGI [6]: > 100 µM
TGI [7]: > 100 µM
TGI [8]: > 100 µM

CC(=O)[CH-]C(=O)c1ccccc1.CC(=O)[CH-]C(=O)c1ccccc1.CC(C)CCCC(C)[C@H]1CCC2[C@@H]3CC=C4C[C@@H]([O-])CC[C@]4(C)C3CC[C@@]21C.CC(C)CCCC(C)[C@H]1CCC2[C@@H]3CC=C4C[C@@H]([O-])CC[C@]4(C)C3CC[C@@]21C.[Ti+4] (some centres not stated)
GI50 [1]: > 100 µM
TGI [1]: > 100 µM
GI50 [2]: > 100 µM
TGI [2]: > 100 µM
GI50 [4]: > 100 µM
TGI [4]: > 100 µM
GI50 [5]: > 100 µM
TGI [5]: > 100 µM
GI50 [6]: > 100 µM
TGI [6]: > 100 µM
GI50 [8]: > 100 µM
TGI [8]: > 100 µM

Cc1ccc(/C(O)=C/c2nc3c(nc2NC24CC5CC(CC(C5)C2)C4)c(=O)oc2ccccc23)cc1
TGI [1]: > 100 µM
TGI [2]: > 100 µM
TGI [3]: > 100 µM
TGI [4]: > 100 µM
TGI [5]: > 100 µM
TGI [6]: > 100 µM
TGI [7]: > 100 µM
TGI [9]: > 100 µM
TGI [8]: > 100 µM

O=C(O)Cc1cc(=O)[nH]c2c1/C(=N/O)CCC2
TGI [1]: > 100 µM
TGI [2]: > 100 µM
TGI [3]: > 100 µM
TGI [4]: > 100 µM
TGI [5]: > 100 µM
TGI [6]: > 100 µM
TGI [7]: > 100 µM
TGI [9]: > 100 µM
TGI [8]: > 100 µM

CC(C)[O-].CC(C)[O-].O=C1C=C([O-])C(=O)c2ccccc21.O=C1C=C([O-])C(=O)c2ccccc21.[Ti+4]
GI50 [1]: 6.32 µM
TGI [1]: > 66.8 µM
GI50 [2]: > 100 µM
TGI [2]: > 100 µM
GI50 [3]: > 44.8 µM
TGI [3]: > 91.1 µM
GI50 [4]: > 85.3 µM
TGI [4]: > 100 µM
GI50 [5]: 39.9 µM
TGI [5]: > 100 µM
GI50 [6]: > 100 µM
TGI [6]: > 100 µM
GI50 [7]: 47.2 µM
TGI [7]: > 100 µM
GI50 [8]: > 100 µM
TGI [8]: > 100 µM

COc1ccc(NC(=O)CC/C(CC(=O)C(C)(C)C)=N\NC(=O)C(=O)NN)cc1
TGI [1]: > 100 µM
TGI [2]: > 100 µM
TGI [3]: > 100 µM
TGI [4]: > 100 µM
TGI [5]: > 100 µM
TGI [7]: > 100 µM
TGI [9]: > 100 µM
TGI [8]: > 100 µM

O=C(CC(C(=O)c1cccs1)c1cccs1)c1ccsc1 (configuration not stated)
TGI [1]: > 100 µM
TGI [2]: > 100 µM
TGI [3]: > 100 µM
TGI [10]: > 100 µM
TGI [6]: > 100 µM
TGI [7]: > 100 µM
TGI [9]: > 100 µM
TGI [8]: > 100 µM
